Measured values published in US20090142347A1, “Tissue-Nonspecific Alkaline Phosphatase (TNAP): a Therapeutic Target for Arterial Calcification” (THE BURNHAM INSTITUTE FOR MEDICAL RESEARCH, priority 2004, published 2009).
Where two headings read alike, the source gives them in different places. Blank lines part the entries; values can stand above or below the compound they belong to.

Columns and labels:
[1] = test system: bovine VSMC calcification; conditions: Shioi et al., 1995; cited from earlier work
[2] = molecular target: Recombinant human FLAG-TNAP (Homo sapiens, UniProt P05186); test: Chemical library screening, TNAP pNPP microtiter plate assay; conditions: for inhibition response: positive controls, 0.5 mM pNPP, pH 9.8, concentration not given
Recombinant human FLAG-TNAP, sequence (P05186 18-501 limits assumed): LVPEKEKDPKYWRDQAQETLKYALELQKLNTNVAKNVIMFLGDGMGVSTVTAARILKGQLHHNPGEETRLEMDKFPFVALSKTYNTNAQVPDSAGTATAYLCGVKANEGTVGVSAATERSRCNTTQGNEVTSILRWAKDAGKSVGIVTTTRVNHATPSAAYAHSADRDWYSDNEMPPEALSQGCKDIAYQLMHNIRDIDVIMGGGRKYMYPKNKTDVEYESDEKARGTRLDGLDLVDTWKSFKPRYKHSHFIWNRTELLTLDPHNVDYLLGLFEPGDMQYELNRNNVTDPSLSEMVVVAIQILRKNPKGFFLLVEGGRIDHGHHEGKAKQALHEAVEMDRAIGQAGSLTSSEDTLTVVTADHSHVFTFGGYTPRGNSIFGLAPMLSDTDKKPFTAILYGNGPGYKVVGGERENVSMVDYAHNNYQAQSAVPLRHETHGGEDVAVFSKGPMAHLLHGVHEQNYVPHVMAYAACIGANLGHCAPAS

chTNALP = molecular target: T1, chTNALP (Gallus gallus, UniProt Q92058); test: Ki of uncompetitive inhibitors (pNPP substrate); format: biochemical, chicken
T1 sequence (Q92058 17-498): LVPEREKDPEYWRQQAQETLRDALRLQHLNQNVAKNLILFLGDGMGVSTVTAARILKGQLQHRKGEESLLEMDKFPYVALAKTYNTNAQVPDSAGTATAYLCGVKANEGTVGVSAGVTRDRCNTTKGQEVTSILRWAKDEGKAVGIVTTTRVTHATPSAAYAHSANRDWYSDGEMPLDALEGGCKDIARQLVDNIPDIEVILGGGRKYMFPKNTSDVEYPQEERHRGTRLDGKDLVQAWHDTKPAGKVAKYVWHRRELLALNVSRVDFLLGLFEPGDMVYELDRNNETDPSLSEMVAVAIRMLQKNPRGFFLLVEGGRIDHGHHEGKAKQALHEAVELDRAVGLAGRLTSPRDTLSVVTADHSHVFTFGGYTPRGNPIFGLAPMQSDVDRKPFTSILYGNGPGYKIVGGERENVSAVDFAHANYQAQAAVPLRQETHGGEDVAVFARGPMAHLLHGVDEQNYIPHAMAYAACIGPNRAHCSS
Excerpt: (See Kozlenkov A, et al., 2002). […] TNAP and PLAP structures were superimposed and the amino acid differences within a 12 Å radius around the catalytic Zn1 ion were pinpointed. The difference between human TNAP and chicken TNAP were also mapped because it is reported that chicken TNAP is much less susceptible to levamisol than is human TNAP. In total, six positions with amino acid differences were found, which could be clustered into two groups. […] In addition, […] and […] were also investigated.

hPLALP E107 = molecular target: T2, hPLALP E107 (Homo sapiens, UniProt P05187, F129E); test: Ki of uncompetitive inhibitors (pNPP substrate); format: biochemical; conditions: hPLALP mutant E107; read-out: Ki for various inhibitors
T2 construct: made in house
T2 sequence (P05187 23-506 F129E limits assumed): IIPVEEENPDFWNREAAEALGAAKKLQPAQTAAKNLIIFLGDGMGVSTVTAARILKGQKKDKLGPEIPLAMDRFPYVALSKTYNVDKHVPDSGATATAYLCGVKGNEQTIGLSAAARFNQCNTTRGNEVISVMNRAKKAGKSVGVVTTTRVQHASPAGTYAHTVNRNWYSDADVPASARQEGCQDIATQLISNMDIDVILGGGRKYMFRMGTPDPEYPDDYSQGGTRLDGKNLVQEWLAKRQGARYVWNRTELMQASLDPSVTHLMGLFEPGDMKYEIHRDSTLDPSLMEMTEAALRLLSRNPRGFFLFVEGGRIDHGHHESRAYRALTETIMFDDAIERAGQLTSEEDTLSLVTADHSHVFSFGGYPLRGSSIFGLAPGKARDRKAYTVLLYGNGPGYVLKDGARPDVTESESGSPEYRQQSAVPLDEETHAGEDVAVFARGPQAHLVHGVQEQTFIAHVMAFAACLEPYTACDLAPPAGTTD
Experimental: (§1) In brief, samples of the enzymes were added to microtiter plates coated with M2 anti-FLAG antibody, and saturating activities with the substrate pNPP were measured in 1 M DEA/HCl buffer, pH 9.8, containing 1 mM MgCl2 and 20 .micro.M ZnCl2.

hPLALP H429 = molecular target: T3, hPLALP H429 (Homo sapiens, UniProt P05187, E451H); test: Ki of uncompetitive inhibitors (pNPP substrate); format: biochemical; conditions: hPLALP mutant H429; read-out: Ki for various inhibitors
T3 construct: made in house; host or cells: COS-7 (given only for the TNAP-Flag constructs)
T3 sequence (P05187 23-506 E451H limits assumed): as the sequence (P05187 23-506 F129E limits assumed) above, with E107F, E429H counted along it
Experimental: as §1

hPLALP D165 = molecular target: T4, hPLALP D165 (Homo sapiens, UniProt P05187, N187D); test: Ki of uncompetitive inhibitors (pNPP substrate); format: biochemical; conditions: hPLALP mutant D165; read-out: Ki for various inhibitors
T4 construct: made in house; host or cells: COS-7 (given only for the TNAP-Flag constructs)
T4 sequence (P05187 23-506 N187D limits assumed): as the sequence (P05187 23-506 F129E limits assumed) above, with E107F, N165D counted along it
Experimental: as §1

hPLALP = molecular target: T5, hPLALP (Homo sapiens, UniProt P05187); test: Ki of uncompetitive inhibitors (pNPP substrate); format: biochemical; conditions: read-out: Ki for various inhibitors
T5 construct: made in house
T5 sequence (P05187 23-506 limits assumed): as the sequence (P05187 23-506 F129E limits assumed) above, with E107F counted along it
Experimental: as §1

hPLALP (R428, H429) = molecular target: T6, hPLALP (R428, H429) (Homo sapiens, UniProt P05187, D450R/E451H); test: Ki of uncompetitive inhibitors (pNPP substrate); format: biochemical; conditions: hPLALP mutant (R428, H429); read-out: Ki for various inhibitors
T6 construct: made in house; host or cells: COS-7 (given only for the TNAP-Flag constructs)
T6 sequence (P05187 23-506 D450R/E451H limits assumed): as the sequence (P05187 23-506 F129E limits assumed) above, with E107F, D428R, E429H counted along it
Experimental: as §1

hPLALP S119 = molecular target: T7, hPLALP S119 (Homo sapiens, UniProt P05187, N141S); test: Ki of uncompetitive inhibitors (pNPP substrate); format: biochemical; conditions: hPLALP mutant S119; read-out: Ki for various inhibitors
T7 construct: made in house; host or cells: COS-7 (given only for the TNAP-Flag constructs)
T7 sequence (P05187 23-506 N141S limits assumed): as the sequence (P05187 23-506 F129E limits assumed) above, with E107F, N119S counted along it
Experimental: as §1

hPLALP G108 = molecular target: T8, hPLALP G108 (Homo sapiens, UniProt P05187, Q130G); test: Ki of uncompetitive inhibitors (pNPP substrate); format: biochemical; conditions: hPLALP mutant G108; read-out: Ki for various inhibitors
T8 construct: made in house; host or cells: COS-7 (given only for the TNAP-Flag constructs)
T8 sequence (P05187 23-506 Q130G limits assumed): as the sequence (P05187 23-506 F129E limits assumed) above, with E107F, Q108G counted along it
Experimental: as §1

hPLALP (E107, G108) = molecular target: T9, hPLALP (E107, G108) (Homo sapiens, UniProt P05187, F129E/Q130G); test: Ki of uncompetitive inhibitors (pNPP substrate); format: biochemical; conditions: hPLALP mutant (E107, G108); read-out: Ki for various inhibitors
T9 construct: made in house; host or cells: COS-7 (given only for the TNAP-Flag constructs)
T9 sequence (P05187 23-506 F129E/Q130G limits assumed): as the sequence (P05187 23-506 F129E limits assumed) above, with Q108G counted along it
Experimental: as §1

hPLALP R428 = molecular target: T10, hPLALP R428 (Homo sapiens, UniProt P05187, D450R); test: Ki of uncompetitive inhibitors (pNPP substrate); format: biochemical; conditions: hPLALP mutant R428; read-out: Ki for various inhibitors
T10 construct: made in house; host or cells: COS-7 (given only for the TNAP-Flag constructs)
T10 sequence (P05187 23-506 D450R limits assumed): as the sequence (P05187 23-506 F129E limits assumed) above, with E107F, D428R counted along it
Experimental: as §1

hPLALP (E107, G429) = molecular target: T11, hPLALP (E107, G429) (Homo sapiens, UniProt P05187, E451G/F129E); test: Ki of uncompetitive inhibitors (pNPP substrate); format: biochemical; conditions: hPLALP mutant (E107, G429); read-out: Ki for various inhibitors
T11 construct: made in house; host or cells: COS-7 (given only for the TNAP-Flag constructs)
T11 sequence (P05187 23-506 F129E/E451G limits assumed): as the sequence (P05187 23-506 F129E limits assumed) above, with E429G counted along it
Experimental: as §1

hPLALP (G108, G429) = molecular target: T12, hPLALP (G108, G429) (Homo sapiens, UniProt P05187, E451G/Q130G); test: Ki of uncompetitive inhibitors (pNPP substrate); format: biochemical; conditions: hPLALP mutant (G108, G429); read-out: Ki for various inhibitors
T12 construct: made in house; host or cells: COS-7 (given only for the TNAP-Flag constructs)
T12 sequence (P05187 23-506 Q130G/E451G limits assumed): as the sequence (P05187 23-506 F129E limits assumed) above, with E107F, Q108G, E429G counted along it
Experimental: as §1

wild-type osteoblasts = wild-type osteoblasts treated with exogenous PPi; RT-PCR
Excerpt: To determine whether affecting the function of either NPP1 or ANK would have beneficial consequences on hypophosphatasia by reducing the amounts of extracellular PPi in the Akp2−/− mice, we bred either Enpp1−/− or ank/ank mice to the Akp2−/− mice. […] Hypophosphatasia arises from deficits in TNAP activity, resulting in an increase in PPi levels and concomitant increase in OPN levels.

Akp2−/− mice = conditions: Narisawa et al., 2001; cited from earlier work
[3] = test system: TNAP activity in Enpp1−/− and ank/ank derived VSMC; conditions: Enpp1−/− and ank/ank derived VSMC in vitro, tetramisole 0.125 mM, 3 weeks (FIG. 5)
Excerpt: Left panel: A) immunofluorscent detection of smooth muscle alpha-actin. VSMCs were isolated from WT aorta by collagenase digestion, all cells were stained for actin filaments (F-actin) by rhodamine phalloidin (red), and VSMCs were stained using a specific FITC-conjugated monoclonal anti-SM-alpha-actin (green). B) Proportion of cells staining positive for SM-alpha-actin. C) Total RNA was isolated and SM alpha-actin was detected by RT-PCR analysis. Middle panel: VSMCs isolated from WT, Enpp1−/− and ank/ank mice were cultured in the presence of beta-glycerophosphate for 4 weeks. Cells were then stained for TNAP activity (pink) and using von Kossa staining, mineral was detected (black/brown). The area of the culture well in which mineralization was present was quantified by using a point-counting method in which the plate was placed on a grid (divided into 10 mm×10 mm squares) and visualized using a dissecting microscope, the percent area occupied by mineral was assessed by counting the occurrences where the presence of mineral coincided with intercepts on the grid.

[4] = test system: Enpp1−/− and ank/ank mice; conditions: subcutaneous, ALZET osmotic pumps, 10 μg/g/day, compared to control mice
Experimental: Flexibility was measured after euthanasia by determining the degree to which the root of the tail could be pulled back towards the neck, shoulders or lumbar spine until resistance prevented further flexing.
Tetramisole was delivered via ALZET osmotic pumps (Durect Corporation, Cupertino, Calif.) at a dose of 10 μg/g/day.

[5] = dose of 30 micrograms/g BW; results not shown
Excerpt: (§2) In one example of this pharmacological study tetramisole will be used. […] For ApoE−/− mice arterial calcification is established by 3-months of age. Thus, the pump can feasibly be planted as early as 1-month of age, allowing treatment to begin at least as early.

MC3T3-E1 cells = test system: MC3T3-E1 cells
Excerpt: as §2

inhibition response [2]: around 50%
inhibition of the enzymatic activity of TNAP (confirmed screening hits) ([2]; screen of 53,080 compounds): inhibit the enzymatic activity of TNAP
Ki (chTNALP; read-out: Ki for various inhibitors): 136 ± 20 µM
Ki (hPLALP E107): 1050 ± 40 µM
Ki (hPLALP H429): 50 ± 3 µM
Ki (hPLALP D165): 680 ± 140 µM
Ki (hPLALP): 563 ± 56 µM
Ki (hPLALP (R428, H429)): 34 ± 1 µM
Ki (hPLALP S119): 630 ± 90 µM
Ki (hPLALP G108): 458 ± 30 µM
Ki (hPLALP (E107, G108)): 1150 ± 60 µM
Ki (hPLALP R428): 460 ± 40 µM
Ki (hPLALP (E107, G429)): 535 ± 80 µM
Ki (hPLALP (G108, G429)): 480 ± 60 µM
Compound: c1ccc([C@H]2CN3CCSC3=N2)cc1 [Levamisole]
bovine VSMC calcification [1]: blocks bovine VSMC calcification in a dose-dependent manner

Compound: O=P(O)(O)OP(=O)(O)O [PPi, Inorganic pyrophosphate]
NPP1 and ANK expression (wild-type osteoblasts): decreased NPP1 and ANK expression
OPN expression (wild-type osteoblasts): increase in OPN expression

Compound: Cn1c(=O)c2[nH]cnc2n(C)c1=O [Theophylline, theophylline]
Ki (chTNALP; Ki for various inhibitors, (1)*, (1)*: 1 mM pNPP): 393 ± 150 µM
Ki (chTNALP; Ki for various inhibitors, (20)*, (20)*: 20 mM pNPP): 111 ± 8 µM

Compound: Cc1ncc(CO)c(C=O)c1O [pyridoxal]
apoptosis in the thymus and the lumbar nerve roots (Akp2−/− mice): reverses apoptosis
epileptic seizures (Akp2−/− mice): suppresses the epileptic seizures

Compound: c1ccc(C2CN3CCSC3=N2)cc1 (stereo not drawn) [tetramisole]
TNAP activity in VSMC [3]: inhibits TNAP activity
TNAP activity in VSMC ([3]; listed as Tetramisole): normalize TNAP activity
flexibility of the spine [4]: enhanced flexibility of the spine
tolerability [5]: well tolerated
PPi levels (MC3T3-E1 cells): raise PPi levels

inhibition response [2]: around 50%
Compound: phosphate
